Assay results taken from patent publication US20070258986A1, “Targeted Delivery System for Bioactive Agents” (Govt of the US as represented by the secretary,, priority 2003, published 2007).

What was measured:
Y289L GalT [1] = target: T1, Y289L GalT (Bos taurus, UniProt P08037, Y289L); assay: Labeling of the O-GlcNAc peptide with ketone analogue 1 by mutant Y289L GalT (LC-MS); format: biochemical, bovine; conditions: peptide TAPTS(O-GlcNAc)TIAPG 10 μM, analogue 1 1 mM, 6 h at 4° C.
T1 construct: the catalytic domain of GalT has a tyrosine exchanged with another amino acid; made in house
T1 sequence (P08037 130-402 Y289L limits assumed): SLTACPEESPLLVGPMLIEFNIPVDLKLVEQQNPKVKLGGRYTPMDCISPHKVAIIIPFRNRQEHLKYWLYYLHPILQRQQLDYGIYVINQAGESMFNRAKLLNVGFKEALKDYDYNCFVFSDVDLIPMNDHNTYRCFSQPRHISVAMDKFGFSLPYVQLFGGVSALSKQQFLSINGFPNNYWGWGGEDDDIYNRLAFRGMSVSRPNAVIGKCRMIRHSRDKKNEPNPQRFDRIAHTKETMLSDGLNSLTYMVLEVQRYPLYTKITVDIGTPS
Description: Labeling of the O-GlcNAc Peptide: The peptide TAPTS(O-GlcNAc)TIAPG (10 μM was dissolved in 25 mM MOPS buffer, pH 6.7 containing 5 mM MnCl2 and 8 μM reference peptide (ThermoFinnigan, San Jose, Calif.). Ketone analogue 1 and mutant Y289L GalT were added to final concentrations of 1 mM and 100 ng/μL, respectively. Prior to enzyme addition, an aliquot of the reaction was removed as an initial time point for LC-MS analysis. Reactions were incubated at 4° C. for 6 h, after which an aliquot of the reaction mixture was removed for product analysis by LC-MS. The remainder of the reaction was diluted 5-fold into PBS (final concentration: 10.1 mM Na2HPO4, 1.76 mM KH2 HPO4, 137 mM NaCl, 2.7 mM KCl, pH 6.7), and N-(aminooxyacetyl)-N′-(D-biotinoyl) hydrazine (Molecular Probes, Eugene, Oreg.) was added to a final concentration of 12 mM. After 8 h at 25° C., the extent of biotin-oxime product was measured by LC-MS. […] Labeling reactions with wild-type GalT were performed identically, with the exception that reactions were incubated at 37° C. for 12 h. […]
For the aminooxy biotin reaction, formation of the oxime product was monitored using an extracted ion chromatogram within the mass range 1319.0-1321.0 m/z and 1633.0-1635.5 m/z, which was generated post-acquisition via the Xcalibur™ software. […]

Y289L GalT [2] = target: T1, Y289L GalT; assay: Labeling of O-GlcNAc glycosylated CREB protein with analogue 1 and Y289L GalT, aminooxy biotin, streptavidin-HRP blot; format: biochemical, bovine; conditions: recombinant CREB from Sf9 cells, analogue 1 1 mM, 12 h at 4° C., then aminooxy biotin
Description: Labeling of CREB protein: Recombinant O-GlcNAc glycosylated CREB was generated by coexpression of CREB with O-GlcNAc glycosyltransferase in Sf9 cells as described previously (Lamarre-Vincent et al., 2003). 500 ng of CREB in 20 mM HEPES pH 7.9, 100 mM KCl, 0.2 mM EDTA, 15% glycerol was added to 50 mM MOPS pH 6.45 containing 5 mM MnCl2 and 0.25 mU/μL alkaline phosphatase (Unverzagt et al., 1990). Analogue 1 and Y289L GalT were then added to final concentrations of 1 mM and 40 ng/μL, respectively. Control reactions without enzyme or analogue 1 were treated identically. Following incubation at 12 h at 4° C., the reactions were diluted 5-fold into PBS containing protease inhibitors (5 μg/mL pepstatin, 5 μg/mL chymostatin, 20/μg/mL leupeptin, 20 μg/mL aprotinin, 20 μg/mL antipain, 0.2 mM PMSF). Aminooxy biotin was added to a final concentration of 2 mM, and the biotinylation reactions were incubated with gentle shaking for 12 h at 37° C. Reactions were aliquoted for analysis and stopped by boiling in SDS-PAGE loading dye. Proteins were resolved by 10% SDS-PAGE, electrophoretically transferred to nitrocellulose, and probed with streptavidin-HRP. […]

conversion of the peptide to the ketone-labeled product (Y289L GalT [1]): complete conversion | labeling of glycosylated CREB (chemiluminescence) (Y289L GalT [2]; diammonium salt): Strong, selective labeling | labeling of glycosylated CREB (chemiluminescence) (Y289L GalT [2]; listed as 1, diammonium salt): Strong labeling
SMILES: CC(=O)C[C@H]1[C@@H](OP(=O)(O)OP(=O)(O)OC[C@H]2O[C@@H](n3ccc(=O)[nH]c3=O)[C@H](O)[C@@H]2O)O[C@H](CO)[C@H](O)[C@@H]1O.N.N [analogue 1, Uridine 5′-diphospho-2-acetonyl-2deoxy-α-D-galactopyranose diammonium salt]
